Values belong to the molecule of their own block, whether it stands above or below them.
Experiments:
[1] = Inhibition of Toxoplasma gondii LDH2
[2] = Inhibition of Plasmodium falciparum LDH
[3] = Inhibition of Toxoplasma gondii LDH1
[4] = Inhibition of recombinant his tagged Cryptosporidium parvum LDH expressed in Escherichia coli by spectrophotometric based assay
[5] = Inhibition of Plasmodium falciparum MDH
[6] = Inhibition of Trichomonas vaginalis LDH
[7] = Inhibition of Plasmodium falciparum LDH by ELISA method
[8] = Inhibition of Schistosoma LDH

Structure (SMILES): COc1ccc(CNC(=O)C2=CC(=O)c3c(O)cc(OCCc4ccc(NC(=O)C(=O)O)c(C)c4)cc3C2)cc1
- IC50 [5]: 2.66 µM
- IC50 [2]: 1.75 µM

Structure (SMILES): c1ccc2[nH]cnc2c1 [BENZIMIDAZOLE]
- IC50 [8]: Not Active

Structure (SMILES): Cc1cc2c(C(C)C)c(O)c(O)c(C=O)c2c(O)c1-c1c(C)cc2c(C(C)C)c(O)c(O)c(C=O)c2c1O [GOSSYPOL]
- IC50 [1]: 0.1 µM
- IC50 [3]: 0.7 µM
- IC50 [4]: 11.8 µM

Structure (SMILES): NC(=O)C(=O)O [OXAMATE]
- IC50 [5]: 2.66 µM

Structure (SMILES): CC[C@@H]([C@H](C)O)n1ncn(-c2ccc(N3CCN(c4ccc(OC[C@@H]5CO[C@@](Cn6cncn6)(c6ccc(F)cc6F)C5)cc4)CC3)cc2)c1=O [POSACONAZOLE]
- IC50 [7]: 2.6 µM

Structure (SMILES): O=C(C1CCCCC1)N1CC(=O)N2CCc3ccccc3C2C1 (stereo not drawn) [PRAZIQUANTEL]
- IC50 [8]: Not Active

Structure (SMILES): O=C1c2ccccc2C(=O)c2c(O)c(O)cc(O)c21 [PURPURIN]
- IC50 [4]: 46.3 µM

Further lines, with some results ahead:

- IC50 [2]: 0.14 µM
- IC50 [4]: 39.5 µM
Structure (SMILES): CCCc1c(O)c(O)c(C(=O)O)c2cc(Cc3ccccc3)c(C)cc12
- IC50 [1]: 0.9 µM
- IC50 [3]: 3.5 µM

- IC50 [6]: 100 µM
Structure (SMILES): O=C(Nc1ccccc1)c1nnn(-c2ccnc3cc(Cl)ccc23)c1-c1ccccc1

- IC50 [4]: 79.6 µM
Structure (SMILES): O=C(CSc1ccccc1)Nc1cccc2ccccc12

- IC50 [7]: 13.1 µM
Structure (SMILES): CC(C)c1c(C(=O)Nc2ccccc2)c(-c2ccccc2)c(-c2ccc(F)cc2)n1CC[C@@H](O)C[C@@H](O)CC(=O)O [ATORVASTATIN]

- IC50 [7]: 9.3 µM
Structure (SMILES): CCC(C)n1ncn(-c2ccc(N3CCN(c4ccc(OCC5COC(Cn6cncn6)(c6ccc(Cl)cc6Cl)O5)cc4)CC3)cc2)c1=O (stereo not drawn) [ITRACONAZOLE]

From ChEMBL document CHEMBL5226345, “Lactate dehydrogenase and malate dehydrogenase: Potential antiparasitic targets for drug development studies” (Bioorg Med Chem, 2021)
